In patent US20040006236A1, “Diaminopropionic acid derivatives” (priority 1999, published 2004):
Where a name gives a salt, the structure may show the parent alone. Read-outs that look alike come from different tables or passages of the source.

Key:
[1] = target: T1, LFA-1 binding to immobilized ICAM-1 (Homo sapiens, UniProt P05107+P20701); test: LFA-1/ICAM-1 protein-protein assay (solid-phase ELISA); settings: read-out: LFA-1/ICAM-1 Protein-Protein Assay IC50
T1 construct: made in house; host or cells: transfected 293 cells (LFA-1)
T1 sequence (P20701 26-1170): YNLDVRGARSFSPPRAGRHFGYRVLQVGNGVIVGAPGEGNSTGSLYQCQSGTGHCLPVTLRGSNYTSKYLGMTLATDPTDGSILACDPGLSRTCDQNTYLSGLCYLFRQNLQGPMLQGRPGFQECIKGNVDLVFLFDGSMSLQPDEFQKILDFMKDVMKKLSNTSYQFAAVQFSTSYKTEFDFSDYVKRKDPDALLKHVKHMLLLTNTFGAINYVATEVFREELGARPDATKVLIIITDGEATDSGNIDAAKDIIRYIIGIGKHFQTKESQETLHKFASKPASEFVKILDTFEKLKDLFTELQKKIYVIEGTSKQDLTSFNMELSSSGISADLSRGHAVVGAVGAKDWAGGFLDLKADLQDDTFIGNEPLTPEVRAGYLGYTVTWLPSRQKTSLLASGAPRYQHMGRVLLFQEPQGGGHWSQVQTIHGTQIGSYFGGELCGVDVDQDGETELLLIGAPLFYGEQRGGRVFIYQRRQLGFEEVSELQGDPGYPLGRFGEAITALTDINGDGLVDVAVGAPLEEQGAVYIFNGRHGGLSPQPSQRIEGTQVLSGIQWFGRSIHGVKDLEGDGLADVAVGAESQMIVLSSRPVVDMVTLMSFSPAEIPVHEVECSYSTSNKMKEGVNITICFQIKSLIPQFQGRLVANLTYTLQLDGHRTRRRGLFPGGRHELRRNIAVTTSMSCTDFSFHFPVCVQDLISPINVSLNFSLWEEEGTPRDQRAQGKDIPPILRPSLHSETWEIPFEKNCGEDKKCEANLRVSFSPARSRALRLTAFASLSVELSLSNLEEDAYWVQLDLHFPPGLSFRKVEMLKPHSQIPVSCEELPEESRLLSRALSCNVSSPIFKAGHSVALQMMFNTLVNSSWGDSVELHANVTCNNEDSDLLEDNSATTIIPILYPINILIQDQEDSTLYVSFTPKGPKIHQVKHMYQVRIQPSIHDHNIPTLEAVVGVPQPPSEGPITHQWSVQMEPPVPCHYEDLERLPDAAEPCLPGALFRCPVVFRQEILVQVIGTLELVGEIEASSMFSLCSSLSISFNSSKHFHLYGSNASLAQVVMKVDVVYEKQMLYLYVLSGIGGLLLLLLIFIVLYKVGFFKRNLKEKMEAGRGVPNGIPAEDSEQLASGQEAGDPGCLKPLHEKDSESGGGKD
T1 sequence (P05107 23-769): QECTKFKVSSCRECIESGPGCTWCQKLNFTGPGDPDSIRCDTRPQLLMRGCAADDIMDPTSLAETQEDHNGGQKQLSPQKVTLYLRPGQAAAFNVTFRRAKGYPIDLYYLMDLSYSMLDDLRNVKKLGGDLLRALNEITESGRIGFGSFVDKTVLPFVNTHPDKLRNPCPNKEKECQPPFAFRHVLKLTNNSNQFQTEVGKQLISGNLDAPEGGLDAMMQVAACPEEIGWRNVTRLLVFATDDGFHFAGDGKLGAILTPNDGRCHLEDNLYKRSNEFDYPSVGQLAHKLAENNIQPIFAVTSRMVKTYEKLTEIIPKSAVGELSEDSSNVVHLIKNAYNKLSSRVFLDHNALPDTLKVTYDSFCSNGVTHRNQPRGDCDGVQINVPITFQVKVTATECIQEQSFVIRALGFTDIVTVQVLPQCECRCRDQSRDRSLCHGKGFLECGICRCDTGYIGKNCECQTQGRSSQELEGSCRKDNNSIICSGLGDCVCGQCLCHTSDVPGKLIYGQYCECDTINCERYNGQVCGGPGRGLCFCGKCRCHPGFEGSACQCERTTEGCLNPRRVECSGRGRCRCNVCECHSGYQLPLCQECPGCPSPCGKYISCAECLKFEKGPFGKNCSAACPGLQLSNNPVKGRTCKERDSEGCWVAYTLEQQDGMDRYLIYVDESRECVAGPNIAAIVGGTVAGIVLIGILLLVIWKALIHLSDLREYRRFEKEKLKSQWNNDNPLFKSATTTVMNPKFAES
Procedure: (a) LFA-1/ICAM-1 screening test: LFA-1/ICAM-1 antagonist activity, defined as the ability of compounds of the invention to block LFA-1 binding to immobilized ICAM-1, was quantitated using a solid-phase ELISA.
(§1) Typically, fusion protein consisting of the entire extracellular domain of human ICAM-1 and the Fc domain of human IgG (5dICAM-Ig) was coated onto 96-well microtiter plates (0.15 μg in 100 μL PBS) overnight at 4° C. The plates were then blocked with 150 μL of 1% BSA/1 mM MnCl2/0.14 M NaCl/20 mM HEPES, pH 7.2 for 1 h at 37° C. and washed 3 times (150 μL each) with Wash Buffer (50 mM Tris, pH 7.4/100 mM NaCl/1 mM MnCl2/0.05% Tween 20). Stock solutions (100 μM in 100% DMSO) of test compounds were diluted 50 fold with 150 μL of Binding Buffer (0.05% BSA/0.05% Tween 20/1 mM MnCl2/0.14 M NaCl/20 mM HEPES, pH 7.2) plus 10% DMSO. […] Fifty μL per well of each dilution was added to the ICAM-1 coated plates, followed by 50 μL per well of membrane-bound LFA-1 (280 ng/mL in Binding Buffer) derived from transfected 293 cells. The plates were shaken vigorously for 1 min (room temperature) and gently for 2 h (37° C.). After incubation, the plates were washed 3 times (150 μL each) with Wash Buffer. Mouse anti-human integrin β2 monoclonal antibody was added (100 μL/well, 1 μg/mL in Binding Buffer) and allowed to incubate for 1 h (37° C.) with gentle agitation. The plates were then washed 3 times with Wash Buffer. HRP-conjugated goat anti-mouse IgG (100 μL/well, 1:1500 dilution in Binding Buffer) was added to each well, followed by incubation for 1 h (37° C.), and concluded by three washes (150 μL each) with Wash Buffer. TMB solution (100 μL per well) was added for color development (10 min). The reaction was stopped by the addition of 100 μL of 1 M H3PO4 to each well. The plates were then read at 450 nm. The inhibitory activities of test compounds were determined by the IC50s.
as §1, with “LFA-1/ICAM-1 antagonist activity, defined as the ability to block LFA-1 binding to immobilized ICAM-1, was quantitated using a solid-phase ELISA. Typically,” for “Typically,”, “(0.05 %” for “(0.05%”, “nm.” for “nm. The inhibitory activities of test compounds were determined by the IC50s.”

[2] = test system: T lymphocyte proliferation (C57BI/6 spleen cells with irradiated BALB/c spleen cells); test: Mixed lymphocyte reaction (MLR), one-way; type: cell-based, mice; settings: read-out: MLR IC50
From the text: Admixture of murine spleen cells from two different inbred strains of mice induces proliferation of T lymphocytes. The magnitude of T cell proliferation depends on the extent of disparity in the major histocompatibility antigens between the two strains. Splenic T lymphocytes from both strains proliferate due to alloantigen recognition, a process for which the interaction of ICAM-1 on antigen-presenting cells with LFA-1 on lymphocytes is necessary. The ability of antagonists to inhibit T lymphocyte proliferation following recognition of alloantigens was assessed in a one-way MLR, where cells from one strain were irradiated to permit measurement of the proliferative response of cells from the other strain. Spleen cells were washed three times in tissue culture medium (TCM; see below). […] One hundred microliters of serial dilutions of antagonists or TCM were added to the spleen cell mixture. The total volume in each well was 200 μL. TCM was RPMI1640 containing 10% heat-inactivated fetal bovine serum, […] L-glutamine, 100 Units/ml each of penicillin and streptomycin and 5×10^−5 M 2-mercaptoethanol. Dilutions of antagonists were prepared in TCM. Plates were incubated in 5% CO2 for 3 days. On the third day, 0.5 μCi of tritiated thymidine (10 μCi/mL) was added to all the wells. Cells were harvested 6 h later on a 96-well plate harvester and the amount of tritiated thymidine incorporated was assessed in a liquid scintillation counter.

| IC50 [1] [nM] | Structure (SMILES) | IC50 ([2]; Mus musculus, T-lymphocyte) [nM] | IC50 ([2]; sodium salt) [nM] |
| --- | --- | --- | --- |
| 15 | COc1cc(C(=O)NC[C@H](NC(=O)c2ccc(C(=O)NCc3cccc(O)c3)cc2Cl)C(=O)O)nc2ccccc12 [Example 182] |  |  |
| 42 | O=C(Cc1ccccc1)NC[C@H](NC(=O)c1c(Cl)cccc1Cl)C(=O)O [Example 204] |  |  |
| 31 | O=C(Cc1ccc([N+](=O)[O-])cc1)NC[C@H](NC(=O)c1c(Cl)cccc1Cl)C(=O)O [Example 205] |  |  |
| 23 | O=C1CC[C@@H](C(=O)NC[C@H](NC(=O)c2c(Cl)cccc2Cl)C(=O)O)O1 [Example 208] |  |  |
| 36 | O=C(N[C@@H](CNC(=O)C1CC1)C(=O)O)c1c(Cl)cccc1Cl [Example 210] |  |  |
| 36 | O=C(N[C@@H](CNC(=O)C1CCC1)C(=O)O)c1c(Cl)cccc1Cl [Example 212] |  |  |
| 31 | O=C(N[C@@H](CNC(=O)C1CCCC1)C(=O)O)c1c(Cl)cccc1Cl [Example 213] |  |  |
| 35 | O=C(N[C@@H](CNC(=O)C1CCCCC1)C(=O)O)c1c(Cl)cccc1Cl [Example 215] |  |  |
| 33 | O=C(/C=C/c1cccs1)NC[C@H](NC(=O)c1c(Cl)cccc1Cl)C(=O)O [Example 218] |  |  |
| 24 | COc1cccc(C(=O)NC[C@H](NC(=O)c2c(Cl)cccc2Cl)C(=O)O)c1 [Example 221] |  |  |
| 31 | O=C(NC[C@H](NC(=O)c1c(Cl)cccc1Cl)C(=O)O)c1ccc2[nH]ccc2c1 [Example 225] |  |  |
| 21 | Cc1cccc(C(=O)NC[C@H](NC(=O)c2c(Cl)cccc2Cl)C(=O)O)n1 [Example 227] | 8550 |  |
| 4.4 | N[C@H](Cc1ccc(O)cc1)C(=O)NC[C@H](NC(=O)c1ccc(C(=O)NCc2cccc(O)c2)cc1Cl)C(=O)O [Example 274] | 3700 |  |
| 2.2 | N[C@H](CC(=O)O)C(=O)NC[C@H](NC(=O)c1ccc(C(=O)NCc2cccc(O)c2)cc1Cl)C(=O)O [Example 275] | 540 |  |
| 1.2 | Nc1cccc(C(=O)NC[C@H](NC(=O)c2ccc(C(=O)NCc3cccc(O)c3)cc2Cl)C(=O)O)c1 [Example 288] | 210 |  |
| 5.4 | N[C@@H](CO)C(=O)NC[C@H](NC(=O)c1ccc(C(=O)NCc2cccc(O)c2)cc1Cl)C(=O)O [Example 292] | 3650 |  |
| 1.1 | O=C(NCc1cccc(O)c1)c1ccc(C(=O)N[C@@H](CNC(=O)c2ccccc2)C(=O)O)c(Cl)c1 [Example 304, 3-benzoylamino-N-[2-chloro-4-[[[(3-hydroxyphenyl)methyl]amino]carbonyl]benzoyl]-L-alanine, sodium salt] |  | 270 |
| 42 | CCCCS(=O)(=O)NC[C@H](NC(=O)c1ccc(C(=O)N[C@H](C)c2cccc3ccccc23)cc1Cl)C(=O)O [Example 361, 3-(1-butanesulfonylamino)-N-[2-chloro-4-[[[(1R)-1-(1-naphthalenyl)ethyl]amino]carbonyl]benzoyl]-L-alanine] | 21500 |  |
| 41 | Nc1cccc(C(=O)NCc2ccc(C(=O)N[C@@H](CNC(=O)c3ccccc3)C(=O)O)c(Cl)c2)c1 [Example 367] | 17000 |  |
| 40 | O=C(NCc1ccc(C(=O)N[C@@H](CNC(=O)c2ccccc2)C(=O)O)c(Cl)c1)c1cnc2ccccc2c1 [Example 370] | 11000 |  |
